# Assay results reported in ChEMBL document CHEMBL1201862, “PubChem BioAssay data set” (2004).
# Where “and” joins values, the source holds several entries; their conditions need not be identical. Equal entries are not always repeated. Calls of active or inactive are those of the source.
# Target: Cytochrome P450 2C19 (Homo sapiens, UniProt P33261)
# Assay: Cytochrome panel assay with activity outcomes. Panel member name: p450-cyp2c19 Compounds with AC50 equal or less than 10 uM are considered active
# Format: functional
# Conditions: read-out: AC50
# Chain of Cytochrome P450 2C19 (P33261 whole entry): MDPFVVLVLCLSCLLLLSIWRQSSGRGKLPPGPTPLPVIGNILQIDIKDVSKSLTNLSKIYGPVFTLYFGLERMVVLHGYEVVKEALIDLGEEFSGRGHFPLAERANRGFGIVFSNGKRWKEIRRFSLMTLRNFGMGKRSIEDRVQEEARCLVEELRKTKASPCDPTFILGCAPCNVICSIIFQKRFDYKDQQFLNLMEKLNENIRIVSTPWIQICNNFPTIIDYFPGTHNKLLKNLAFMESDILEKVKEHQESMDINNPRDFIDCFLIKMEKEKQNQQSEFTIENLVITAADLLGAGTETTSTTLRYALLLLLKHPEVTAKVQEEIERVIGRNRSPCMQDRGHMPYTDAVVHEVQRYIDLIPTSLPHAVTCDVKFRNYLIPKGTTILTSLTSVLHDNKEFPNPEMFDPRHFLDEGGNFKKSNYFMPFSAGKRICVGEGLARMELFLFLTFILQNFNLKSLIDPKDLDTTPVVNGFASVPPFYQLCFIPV
row,Structure (SMILES),AC50
1,Clc1ccccc1-c1ccc2ncnc(N3CCNCC3)c2c1,31.6 µM (inconclusive)
2,COC(=O)C/C=C\[C@@H](C)[C@@H](/C=N\O[C@@H](C)c1cc(-c2c(C)cc(C)cc2C)no1)OC,2.51 µM (inconclusive)
3,O=C(NNC(=O)c1ccccc1-n1cccc1)c1ccccc1,11.2 µM (inconclusive)
4,O=C(c1ccncc1)N1CCC2(CC1)CN(c1ccc(-c3ccccc3)cc1)C2,2.51 µM (inconclusive)

# Target: T1, Rac GTPase-activating protein 1 (Homo sapiens, UniProt Q9H0H5)
# T1 sequence (Q9H0H5 whole entry): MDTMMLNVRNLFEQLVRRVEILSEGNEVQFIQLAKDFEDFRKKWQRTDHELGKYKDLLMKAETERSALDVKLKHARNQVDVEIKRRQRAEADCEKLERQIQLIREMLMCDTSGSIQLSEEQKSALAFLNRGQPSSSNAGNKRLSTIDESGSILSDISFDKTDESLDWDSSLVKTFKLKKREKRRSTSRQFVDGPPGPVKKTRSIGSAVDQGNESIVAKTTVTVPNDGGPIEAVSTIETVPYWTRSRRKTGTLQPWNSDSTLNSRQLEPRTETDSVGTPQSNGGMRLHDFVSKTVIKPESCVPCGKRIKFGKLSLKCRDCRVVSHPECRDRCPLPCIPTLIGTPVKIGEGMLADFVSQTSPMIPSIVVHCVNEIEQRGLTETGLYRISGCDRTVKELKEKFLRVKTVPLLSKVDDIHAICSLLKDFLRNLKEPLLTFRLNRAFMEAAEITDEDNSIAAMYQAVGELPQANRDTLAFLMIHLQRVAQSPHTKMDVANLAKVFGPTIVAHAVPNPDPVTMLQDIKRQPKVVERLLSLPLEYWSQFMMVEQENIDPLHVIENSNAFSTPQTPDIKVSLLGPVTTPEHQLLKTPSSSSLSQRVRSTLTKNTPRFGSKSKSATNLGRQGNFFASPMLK
# Assay: MgcRacGAP GTPase-activating activity inhibitors, confirmation, biochemical, ADP Hunter fluorescence, primary and confirmatory (AID 624330)
# Format: functional
# Conditions: not given
row,Structure (SMILES),IC50
1,Nc1ccc2[nH]c(Cc3ccccc3)nc2c1,76.2 µM (active)
2,COc1ccc(OCCn2ccnc2C)cc1,136 µM (active)
3,O=[N+]([O-])c1ccc(N2CCN(CCOCCO)CC2)c([N+](=O)[O-])c1,204 µM (active)
4,COc1ccc(CN2CCC(C(N)=O)CC2)cc1OCc1ccccc1,204 µM (active)
5,COc1ccccc1CNCC(=O)Nc1ccccc1-n1cccc1,179 µM (active)
6,CC1CCN(S(=O)(=O)c2ccc3c(c2)C(Cl)(Cl)C(=O)N3)CC1,60.3 µM (active)
7,CN(C)CCCC1Sc2ccccc2Sc2ccccc21 (stereo not given),210 µM (active)
8,COc1cc(/C=N\NC(=O)CNC(=O)C2COc3ccccc3O2)ccc1O (stereo not given),29 µM (active)

# Target: Cytochrome P450 2C9 (Homo sapiens, UniProt P11712)
# Assay: not given
# Conditions: not given
# Chain of Cytochrome P450 2C9 (P11712 whole entry): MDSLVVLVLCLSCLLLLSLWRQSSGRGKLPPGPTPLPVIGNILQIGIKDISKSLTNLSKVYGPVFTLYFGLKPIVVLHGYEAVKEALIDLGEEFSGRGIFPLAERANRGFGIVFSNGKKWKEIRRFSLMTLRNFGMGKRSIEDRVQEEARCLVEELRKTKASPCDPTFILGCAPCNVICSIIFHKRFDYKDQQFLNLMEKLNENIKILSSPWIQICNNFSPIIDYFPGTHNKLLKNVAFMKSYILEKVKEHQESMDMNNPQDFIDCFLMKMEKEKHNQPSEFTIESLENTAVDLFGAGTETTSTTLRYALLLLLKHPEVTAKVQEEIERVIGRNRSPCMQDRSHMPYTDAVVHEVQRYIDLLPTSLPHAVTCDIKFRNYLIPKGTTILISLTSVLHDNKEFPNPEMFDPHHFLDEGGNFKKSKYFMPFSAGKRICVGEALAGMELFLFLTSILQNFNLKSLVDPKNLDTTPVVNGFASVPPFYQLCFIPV
row,Structure (SMILES),AC50
1,COC(=O)C/C=C\[C@@H](C)[C@@H](/C=N\O[C@@H](C)c1cc(-c2c(C)cc(C)cc2C)no1)OC,3.16 µM (inconclusive)
2,O=C(NNC(=O)c1ccccc1-n1cccc1)c1ccccc1,35.5 µM (inconclusive)
3,O=[N+]([O-])c1cccc(-c2nc(-c3ccncc3)no2)c1,8.91 µM (inconclusive)

# Target: T2, Protein RecA (Mycobacterium tuberculosis, UniProt P9WHJ3)
# T2 sequence (P9WHJ3 whole entry): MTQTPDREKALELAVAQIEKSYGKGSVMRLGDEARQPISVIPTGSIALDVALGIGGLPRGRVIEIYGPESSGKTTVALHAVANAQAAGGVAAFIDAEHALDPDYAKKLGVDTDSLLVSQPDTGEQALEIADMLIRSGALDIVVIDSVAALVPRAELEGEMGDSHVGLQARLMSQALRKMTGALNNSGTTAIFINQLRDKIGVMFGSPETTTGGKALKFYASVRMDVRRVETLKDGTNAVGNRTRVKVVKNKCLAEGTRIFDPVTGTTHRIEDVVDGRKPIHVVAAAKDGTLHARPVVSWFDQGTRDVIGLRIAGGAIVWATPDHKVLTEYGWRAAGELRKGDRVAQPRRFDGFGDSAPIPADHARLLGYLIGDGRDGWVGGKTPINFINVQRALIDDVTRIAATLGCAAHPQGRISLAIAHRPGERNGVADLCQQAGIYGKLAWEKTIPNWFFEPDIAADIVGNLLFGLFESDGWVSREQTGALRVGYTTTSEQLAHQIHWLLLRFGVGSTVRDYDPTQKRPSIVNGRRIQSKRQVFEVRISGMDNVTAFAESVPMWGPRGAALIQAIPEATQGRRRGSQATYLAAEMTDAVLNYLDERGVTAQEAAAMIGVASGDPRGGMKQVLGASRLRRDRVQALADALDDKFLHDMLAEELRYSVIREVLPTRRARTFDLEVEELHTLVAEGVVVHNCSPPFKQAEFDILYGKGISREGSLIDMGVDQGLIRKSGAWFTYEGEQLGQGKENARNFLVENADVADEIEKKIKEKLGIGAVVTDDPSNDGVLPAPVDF
# Assay: Fluorescence Cell-Free Homogeneous Dose Retest to Identify Inhibitors of RecA-Intein Splicing Activity. [Related pubchem assays (depositor defined):AID2097, AID2223, AID489010, AID492950]
# Format: functional
# Conditions: not given
row,Structure (SMILES),EC50
1,Nc1ccc2[nH]c(Cc3ccccc3)nc2c1,55.9 µM (active)

# Target: T3, Replicative DNA helicase DnaB (Mycobacterium tuberculosis, UniProt P9WMR3)
# T3 sequence (P9WMR3 whole entry): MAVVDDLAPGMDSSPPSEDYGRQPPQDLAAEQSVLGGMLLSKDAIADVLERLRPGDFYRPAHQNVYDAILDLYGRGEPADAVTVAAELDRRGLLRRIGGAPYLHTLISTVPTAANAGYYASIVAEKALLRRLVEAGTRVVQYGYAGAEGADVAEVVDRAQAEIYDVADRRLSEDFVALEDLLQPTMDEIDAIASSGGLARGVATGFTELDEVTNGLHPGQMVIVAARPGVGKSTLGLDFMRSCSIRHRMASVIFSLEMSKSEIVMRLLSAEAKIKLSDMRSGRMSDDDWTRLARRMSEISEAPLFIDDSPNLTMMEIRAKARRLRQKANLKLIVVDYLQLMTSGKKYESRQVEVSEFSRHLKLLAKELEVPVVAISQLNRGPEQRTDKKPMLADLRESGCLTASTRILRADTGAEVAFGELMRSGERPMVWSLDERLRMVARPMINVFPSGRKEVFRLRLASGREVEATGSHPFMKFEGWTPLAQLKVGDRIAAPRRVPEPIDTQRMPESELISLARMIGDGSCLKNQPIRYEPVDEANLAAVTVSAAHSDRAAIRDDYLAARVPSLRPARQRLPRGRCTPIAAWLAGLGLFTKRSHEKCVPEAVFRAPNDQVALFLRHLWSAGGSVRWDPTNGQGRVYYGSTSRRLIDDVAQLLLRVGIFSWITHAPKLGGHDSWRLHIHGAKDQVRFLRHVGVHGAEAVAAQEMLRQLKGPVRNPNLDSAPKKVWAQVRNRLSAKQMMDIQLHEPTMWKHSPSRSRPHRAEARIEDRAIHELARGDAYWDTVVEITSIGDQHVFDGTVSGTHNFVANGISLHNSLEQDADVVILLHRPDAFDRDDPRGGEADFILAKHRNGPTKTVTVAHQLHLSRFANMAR
# Assay: DnaB intein splicing inhibitors, dose response, biochemical, cell-free fluorescence (AID 449749)
# Format: functional
# Conditions: not given
row,Structure (SMILES),AC50
1,Nc1ccc2[nH]c(Cc3ccccc3)nc2c1,> 380 µM (inactive)

# System: not listed separately
# Assay: Luminescence Cell-Based Dose Retest to Confirm Inhibitors of Cancer Stem Cells. [Related pubchem assays (depositor defined):AID2717, AID2721]
# Format: functional
# Conditions: Homo sapiens
row,Structure (SMILES),AC50
1,COc1ccc(-c2sc3ccccc3c2C#CCCO)cc1,4.81 µM (active)
2,COc1cc(/C=C(/C#N)c2nc3ccccc3[nH]2)ccc1OCC(=O)Nc1ccccc1C,0.865 µM (active)
3,CC(C)(C)OC(=O)N1CCC(NC(=O)c2[nH]cnc2C(=O)Nc2ccc(Cl)cc2)CC1,4.79 µM (active)
4,COc1ccc2sc(-c3ccc(SC)cc3)c(-c3ccc(O)cc3)c2c1,2.61 µM (active)
5,C/C(NNc1ccccc1)=C1/C(=O)NC(=O)N(c2ccccc2)C1=O,1.05 µM (active)
6,CCOC(=O)C1=C(N)Oc2cc(O)ccc2C1c1cccc(Cl)c1 (stereo not given),1.77 µM (active)
7,CCOc1ccc(OCC(=O)N(CCC2=CCCCC2)c2c(N)n(Cc3ccccc3)c(=O)[nH]c2=O)cc1,3.6 µM (active)

# System: not listed separately
# Assay: HepG2 cell cytotoxicity, dose response, cytotoxicity control for Shn3 inhibitor project, CellTiter-Glo, cherry-picked (AID 624134)
# Format: functional, cell-based
# Conditions: not given
row,Structure (SMILES),AC50
1,CCOc1ccc(OCC(=O)N(CCC2=CCCCC2)c2c(N)n(Cc3ccccc3)c(=O)[nH]c2=O)cc1,27.3 µM (active)

# System: not listed separately
# Assay: Shn3 3'UTR reporter inhibitors, dose response, cell-based, Clone20 osteoblasts, firefly luciferase, cherry-picked (AID 624132);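 also: firefly luciferase luminescence from reporter carrying the Shn3 3'UTR in osteoblasts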
# Format: functional
# Conditions: not given
row,Structure (SMILES),AC50
1,CCOc1ccc(OCC(=O)N(CCC2=CCCCC2)c2c(N)n(Cc3ccccc3)c(=O)[nH]c2=O)cc1,8.66 µM (active)

# Target: Cytochrome P450 3A4 (Homo sapiens, UniProt P08684);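 also: CYP3A4 tested as one member of a cytochrome P450 panel screen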
# Assay: not given
# Conditions: not given
# Chain of Cytochrome P450 3A4 (P08684 whole entry): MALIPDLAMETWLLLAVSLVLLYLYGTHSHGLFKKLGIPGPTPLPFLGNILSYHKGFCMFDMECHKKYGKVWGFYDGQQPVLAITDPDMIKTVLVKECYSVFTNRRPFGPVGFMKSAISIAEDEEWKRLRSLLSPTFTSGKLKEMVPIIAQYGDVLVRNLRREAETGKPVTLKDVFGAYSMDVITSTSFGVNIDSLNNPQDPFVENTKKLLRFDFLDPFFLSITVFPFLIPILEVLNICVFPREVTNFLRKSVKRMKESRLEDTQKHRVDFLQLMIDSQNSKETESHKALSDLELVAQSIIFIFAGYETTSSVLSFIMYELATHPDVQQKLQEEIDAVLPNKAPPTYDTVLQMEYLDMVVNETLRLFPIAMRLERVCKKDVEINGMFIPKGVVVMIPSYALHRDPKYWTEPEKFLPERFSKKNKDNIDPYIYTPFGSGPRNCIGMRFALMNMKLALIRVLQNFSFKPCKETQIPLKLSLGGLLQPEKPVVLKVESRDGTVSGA
row,Structure (SMILES),AC50
1,COc1ccc(-n2c(=O)c(C)nc3cnc(N4CCNCC4)nc32)cc1,25.1 µM (inconclusive)
2,Clc1ccccc1-c1ccc2ncnc(N3CCNCC3)c2c1,25.1 µM (inconclusive)
3,COc1ccc(C(=O)N2CCC3(CCN(Cc4cc(C(F)(F)F)cc(C(F)(F)F)c4)CC3)CC2)cc1,25.1 µM (inconclusive)
4,CC[C@H]1CC[C@H]2[C@@H]3CC=C4C[C@H](OC(C)=O)[C@@H](N)C[C@@]4(C)[C@H]3CC[C@@]12C,2.51 µM (inconclusive)
5,COc1ccc(Oc2ncc3nc(CCc4ccccc4)c(=O)n(C4CC4)c3n2)cc1,5.01 µM (inconclusive)
6,COC(=O)c1ccccc1NC(=O)CSc1nnc(C(CO)NC(=O)c2ccccc2Cl)n1C (stereo not given),22.4 µM (inconclusive)
7,O=C(c1ccncc1)N1CCC2(CC1)CN(c1ccc(-c3ccccc3)cc1)C2,2.51 µM (inconclusive)
8,O=c1cc(N2CCOCC2)oc2c(-c3ccccc3)cccc12 [LY-294002],10 µM (inconclusive) and 5.01 µM (inconclusive)

# System: not listed separately
# Assay: control 3'UTR Renilla luciferase suppression, dose response, counter-screen for Shn3 inhibitor project, cell-based, Clone20-Shn3RL, cherry-picked (AID 624133)
# Format: functional
# Conditions: not given
row,Structure (SMILES),AC50
1,CCOc1ccc(OCC(=O)N(CCC2=CCCCC2)c2c(N)n(Cc3ccccc3)c(=O)[nH]c2=O)cc1,25.1 µM (active)
